Counter-ions that a name gives are not always drawn. Like-named read-outs stand apart in the source and are kept apart here.
Columns and labels:
[1] = tested on: ATXN2-luc; assay: MSSR pilot screen: ATXN2-luc luciferase assay (Bright-Glo) in H2 cells, single 10 μM dose; type: cell-based, human; details: for SD from mean (ATXN2-luc, Z-score): H2 cells, single dose (title: 10 μM compound), overnight; for ¦Score/1SD¦: absolute score divided by 1SD (0.891 or 0.9)
[2] = tested on: ATXN2-luc; assay: Secondary assays: ATXN2-luc in S2 and H2 cells, 12 doses, Bright-Glo; type: cell-based, human
[3] = tested on: CMV-luc; assay: Secondary assays: CMV-luc in SC cells, Bright-Glo; type: cell-based, human; details: minimum CMV-luc signal in SC cells over 12 doses; summary data
[4] = in vitro; details: human
Protocol: The values for H2 and S2 were used as replicates to calculate IC50s and to assess cell viability.
Compounds were plated at 2× concentrations in phenol red–free DMEM in 25 μl in 384-well plates with each compound dose plated in triplicate. An equal volume of S2, H2, or SC cells (24,000 cells/well) suspended in phenol red–free DMEM with 10% fetal bovine serum and 1× penicillin/streptomycin were added. Cells were grown 24 h and then assayed first by using the CellTiter-Fluor reagent (20 μl) followed by the addition of Bright-Glo (65 μl) luciferase assay, using a multimode plate reader (Beckman; DT880). Values were reported as the mean ± SD with n = 3. IC50s were determined by the Hill coefficient method using an online tool (https://www.aatbio.com/tools/ic50-calculator).

[5] = tested on: ATXN2-luc; assay: ATXN2-luc luciferase dose-response in H2 cells, 48 h; type: cell-based; details: Homo sapiens
[6] = tested on: endogenous ATXN2; assay: Endogenous ATXN2 mRNA by qPCR in HEK-293 cells; type: cell-based; details: Homo sapiens
[7] = tested on: ATXN2-luc; assay: MSSR hit retest: ATXN2-luc luciferase assay, average of H2 and S1 cells (1 and 10 uM); type: cell-based, human; details: Homo sapiens; for activity at 1 µM: read-out: H2&S1 ave luc 1uM
Text: (§1) Supplement mmc2.xlsx, sheet "43 annotated compounds"

[8] = tested on: H2 and S1 cells; assay: Paired MTT viability assay, average of H2 and S1 cells (1 and 10 uM); type: cell-based, human; details: Homo sapiens
Text: as §1

[9] = tested on: H2 cells; details: 1 nM
[10] = tested on: ATXN2-luc; assay: ATXN2-luc mRNA by quantitative PCR in H2 cells; type: cell-based, human; details: 1 and 10 μM, 48 h
Protocol: treated with the indicated doses of DMAG for 48 hours, then ATXN2-luc mRNA abundance was
determined by quantitative PCR using primers that amplify the luciferase gene.

[11] = tested on: endogenous nonmutant ATXN2 protein; assay: Western blotting of endogenous ATXN2 protein in HEK-293 cells; type: cell-based, human
Text: (§3) To characterize a bioavailable HSP90 inhibitor, we proceeded by using 17-dimethylaminoethylamino-17-demethoxygeldanamycin (17-DMAG, also known as alvespimycin) for inhibition of ATXN2 in cultured cells instead of the original compounds identified in the screen.
Experiments were repeated three times; values are means and SD.

[12] = tested on: mutant ATXN2-Q58 protein; assay: Western blotting in HEK-293 ATXN2-Q58 KI cells; type: cell-based, human; details: 24 h
Protocol: as §3
Figure 4 Reduction of ATXN2 expression by 17-DMAG restores autophagy and ER stress phenotypes in ATXN2 mutant cells.A, ATXN2-Q58 HEK-293 cells were treated with 17-DMAG at the indicated doses for 24 h, and then proteins were evaluated by Western blotting. Untreated HEK-293 cells with normal A P-eIF2α TXN2 were also included. […] B, quantification of the blots in A. The n number of blots ranged from 3 to 9. Values are means and SD. Probabilities are from one-way ANOVA and post hoc Bonferroni-corrected t tests: ns; ∗p < 0.05; ∗∗p < 0.01, and ∗∗∗p < 0.001.

[13] = tested on: HSP90; assay: HSP90 target engagement: HSP70 abundance by Western blotting in HEK-293 cells; type: cell-based, human
[14] = tested on: ATXN2 protein; assay: Cerebellar ATXN2 protein by Western blotting in BAC ATXN2-Q22 mice; type: in vivo, mouse
Text: Figure 5 Effect of HSP90 inhibitors on ATXN2 cerebellar expression in vivo in BAC ATXN2-Q22 mice. Inhibition of ATXN2 expression by 17-DMAG (A) and HSP990 (B) versus vehicle controls. Mouse ID numbers are shown above the lanes. Western blot analysis showing upregulation of HSP70 expression following 17-DMAG treatment, which indicates successful HSP90 target engagement. The human transgenic ATXN2 protein is indicated as ATXN2-Q22 and the endogenous mouse protein as mATXN2. Values shown are mean and SD. Probabilities are from Student’s t tests: ∗p < 0.05; ∗∗∗p < 0.001. Three blots were quantified. ATXN2, ataxin-2; BAC, bacterial artificial chromosome; 17-DMAG, 17-dimethylaminoethylamino-17-demethoxygeldanamycin; HSP, heat shock protein.
(§2) Control-treated mice included vehicle alone.
Proteins were prepared, separated on precast polyacrylamide gels (Bio-Rad), transferred to Hybond (Amersham), and detected by enhanced chemiluminescence (Amersham) as previously described ([12], [27]). […]

[15] = tested on: BAC ATXN2-Q22 mice; assay: Survival / tolerability of treated BAC ATXN2-Q22 mice; type: in vivo, mouse
Text: Our study identified 11 compounds known to inhibit HSP90, including one that was identified in our original pilot screen. […] 17-DMAG inhibited transcription of ATXN2 in HEK-293 cells in a dose-dependent manner and reduced the abundance of endogenous and mutant ATXN2 proteins in HEK-293 cells (Figs. 3 and 4). […] Toxicity was evident in our in vivo experiment as well. […] However, like for 17-DMAG, BAC ATXN2-Q22 mice treated with HSP990 had 80% reduced ATXN2 protein abundance in the cerebellum (Fig. 5B).
as §2

[16] = design: method as in PMID 24471734, PMID 15791458; details: ref [39], [40]; cited from earlier work
[17] = design: method as in PMID 25625276; details: ref [41]; cited from earlier work
[18] = tested on: ATXN2 mRNA; assay: Cerebellar ATXN2 mRNA by qPCR in BAC ATXN2-Q22 mice; details: 4 mg/kg intraperitoneal, every other day over 10 days
[19] = tested on: ATXN2-luc; assay: MSSR hit retest / multiconcentration testing: ATXN2-luc luciferase assay in H2 cells (1 and 10 μM); type: cell-based, human; details: 1 uM compound; luciferase, average of H2 and S1 cells expressing ATXN2-luc; rescreen
[20] = tested on: CMV-luc; assay: MSSR counterscreen: CMV-luc expression in HC cells; type: cell-based, human; details: for CMV-luc, averages as percent of no compound control: HC cells, n=4 wells
[21] = pilot screen at 10 µM compound, H2 cells expressing ATXN2-luc
[22] = 100 mg/kg intraperitoneal, every other day over 16 days

C[C@@H]1O[C@@H](O[C@@H]2C=C3CC[C@@H]4[C@H](CC[C@]5(C)[C@@H](c6ccc(=O)oc6)CC[C@]45O)[C@@]3(C)CC2)[C@H](O)[C@H](O)[C@H]1O [Proscillaridin A]
SD from mean (ATXN2-luc, Z-score) [1]: -7.684 SD
SD from mean (pilot screen) ([1]; pilot screen): -7.684 SD
SD from mean (pilot screen) [1, 21]: -7.684
¦Score/1SD¦ ([1]; pilot screen): 8.62
IC50 ([2]; Homo sapiens, 24 h, read-out: IC50 for lowering ATXN2-luc): 17 nM
min ATXN2-luc (%) ([2]; minimum ATXN2-luc signal over 12 doses, H2 and S2 cells, summary data): 7.9859%
min SC luc (%) [3]: 121.976%
viability at 24 h [4]: 74.2%
IC50 ([5]; read-out: IC50, ATXN2-luc expression by luciferase assay): 52 nM
IC50 ([6]; HEK293, 48 h, read-out: IC50, endogenous ATXN2 by qPCR): 677 nM
activity at 1 µM [7]: 54%
activity ([7]; read-out: H2&S1 ave luc 10uM): 22%
viability at 1 µM ([8]; read-out: H2&S1 ave MTT 1uM, 1 uM compound): 47.8%
viability at 10 µM ([8]; read-out: H2&S1 ave MTT 10uM, 10 uM compound): 45%
Cellular viability (MTT) [9]: minimal effect on cellular viability

CO[C@H]1/C=C\C=C(/C)C(=O)NC2=CC(=O)C(NCCN(C)C)=C(C[C@@H](C)C[C@H](OC)[C@H](O)[C@@H](C)/C=C(\C)[C@@H]1OC(N)=O)C2=O [17-DMAG, 17-dimethylaminoethylamino-17-demethoxygeldanamycin]
IC50 ([5]; H2 cells, read-out: IC50 for lowering ATXN2-luc): 93 nM
IC50 ([6]; HEK293, HEK-293 cells, read-out: IC50, endogenous ATXN2 transcription by qPCR): 759 nM
ATXN2-luc transcription (mRNA by qPCR) [10]: reduction of ATXN2-luc transcription
ATXN2-luc transcription (mRNA by qPCR) ([10]; listed as DMAG): reduces transcription of ATXN2-luc
Abundance of endogenous nonmutant ATXN2 protein [11]: reduced the abundance of endogenous nonmutant ATXN2 protein
Mutant ATXN2 protein abundance [12]: significantly reduced mutant ATXN2 protein
HSP70 abundance [13]: significantly increased HSP70 abundance
Reduction of ATXN2 protein in the cerebellum [14, 22]: 90%
Tolerability in mice [15, 22]: well tolerated
Oral bioavailability and blood–brain barrier crossing [16]: orally bioavailable and able to cross the blood–brain barrier

COc1cccc(-c2cc(F)ccc2[C@H]2Cc3nc(N)nc(C)c3C(=O)N2)n1 [HSP990]
Reduced ATXN2 protein abundance in the cerebellum ([14]; 4 mg/kg intraperitoneal, every other day over 10 days): 80%
Survival of treated mice ([15]; 4 mg/kg intraperitoneal, every other day over 10 days, n = 4): half of the mice we treated with HSP990 did not survive treatment
Toxicity in clinical trial [17]: dose-limiting neurotoxicity
Reduced ATXN2 mRNA abundance in cerebella [18]: 20%
ATXN2 mRNA abundance in cerebella ([18]; […]): 78.54 ± 3.9%

CN1CCN(CCCN2c3ccccc3Sc3ccc(C(F)(F)F)cc32)CC1 [TRIFLUOPERAZINE HYDROCHLORIDE]
SD from mean (ATXN2-luc, Z-score) [1]: -5.856 SD
SD from mean (pilot screen) ([1]; pilot screen): -5.856 SD
SD from mean (pilot screen) [1, 21]: -5.856
¦Score/1SD¦ ([1]; pilot screen): 6.51
H2&S1 ave luc 1uM [19]: 105
CMV-luc, averages as percent of no compound control ([20]; 0.1 uM compound): 94.6408% of no compound control
CMV-luc, averages as percent of no compound control ([20]; 1 uM compound): 100.563% of no compound control
CMV-luc, averages as percent of no compound control ([20]; 10 uM compound): 98.5115% of no compound control
Comment on CMV-luc inhibition ([20]; result in words): No CMV-luc inhibition at 10 uM
ATXN2 luc activity (call) ([20]; summary call for the 12 pilot compounds tested on CMV-luc): Unclear
activity at 1 µM ([7]; 1 uM compound, average of H2 and S1 cells): 105%
activity at 10 µM ([7]; head line r3 10uM, average of H2 and S1 cells, read-out: H2&S1 ave luc 10uM): 1.54%
viability at 1 µM ([8]; 1 uM compound, read-out: H2&S1 ave MTT 1uM): 88.1%
viability at 10 µM ([8]; 10 uM compound, read-out: H2&S1 ave MTT 10uM): 8.76%

Source: paper PMC9356275, “A quantitative high-throughput screen identifies compounds that lower expression of the SCA2-and ALS-associated gene ATXN2” (The Journal of Biological Chemistry, 2022)
